Measurements reported in patent US20250195530A1, “POLQ INHIBITORS” (ASTRAZENECA AB, priority 2022, published 2025).

Test system: DLD-1 BRCA2−/− cells
Experiment: Homologous recombination synthetic lethal inhibition of proliferation, DLD-1 BRCA2-/- (Cell Titre Glo 3D)
Type: cell-based
Details: Homo sapiens, DLD-1, first proliferation column (c5), taken as DLD-1 BRCA2-/-; read-out: POLQ PD Prolif Lumin (converted)
Outline: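 DLD-1 BRCA2−/− and parental DLD-1 cells exposed to 10-point dose range (10 μM to 0.51 nM, 3-fold) in RPMI/10% FBS at 37 °C, with medium and compound replenished on day 6. Viability by Cell Titre Glo 3D luminescence at day 7 (DLD-1) or day 12 (BRCA2−/−); IC50 as concentration halving maximum signal.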

How did the IC50 turn out when `Cc1ccnc(Cn2c(-c3ccc(OCC(=O)N4CC(O)C4)cc3Cl)nc3c(OC4(C)CC4)ncnc32)c1` [Example T322, 2-(3-chloro-4-(6-(1-methylcyclopropoxy)-9-((4-methylpyridin-2-yl)methyl)-9H-purin-8-yl)phenoxy)-1-(3-hydroxyazetidin-1-yl)ethan-1-one] was run?
The IC50 was 631 nM.

How did the IC50 turn out when `Cc1ccnc(Cn2c(-c3ccc(OCC(=O)NC4COC4)cc3Cl)nc3c(OC4(C)CC4)ncnc32)c1` [Example T323, 2-(3-chloro-4-(6-(1-methylcyclopropoxy)-9-((4-methylpyridin-2-yl)methyl)-9H-purin-8-yl)phenoxy)-N-(oxetan-3-yl)acetamide] was run?
The IC50 was 200 nM.

For `Cc1ccnc(Cn2c(-c3ccc(OC[C@@H]4CNC(=O)CO4)cc3Cl)nc3c(OC4(C)CC4)ncnc32)c1` [Example T324, (S)-6-((3-chloro-4-(6-(1-methylcyclopropoxy)-9-((4-methylpyridin-2-yl)methyl)-9H-purin-8-yl)phenoxy)methyl)morpholin-3-one], which IC50 is on record?
The IC50 was 398 nM.

`CC1(Oc2ncnc3c2nc(-c2cccc(OCCCC(=O)NS(C)(=O)=O)c2Cl)n3Cc2cccc(Cl)c2)CC1` [Example T325, 4-(2-chloro-3-(9-(3-chlorobenzyl)-6-(1-methylcyclopropoxy)-9H-purin-8-yl)phenoxy)-N-(methylsulfonyl)butanamide] was tested. Which IC50 did it give?
Its IC50 is 316 nM.

How did the IC50 turn out when `Cc1ccnc(Cn2c(-c3ccc(OCC(=O)NC[C@H](C)F)cc3Cl)nc3c(OC4(C)CC4)ncnc32)c1` [Example T327, (S)-2-(3-chloro-4-(6-(1-methylcyclopropoxy)-9-((4-methylpyridin-2-yl)methyl)-9H-purin-8-yl)phenoxy)-N-(2-fluoropropyl)acetamide] was run?
Its IC50 is 200 nM.

`Cc1ccnc(Cn2c(-c3ccc(OCC(=O)NCCCF)cc3Cl)nc3c(OC4(C)CC4)ncnc32)c1` [Example T328, 2-(3-chloro-4-(6-(1-methylcyclopropoxy)-9-((4-methylpyridin-2-yl)methyl)-9H-purin-8-yl)phenoxy)-N-(3-fluoropropyl)acetamide] was tested. Which IC50 did it give?
Its IC50 is 398 nM.

`COC1(COc2ccc(-c3nc4c(OC5(C)CC5)ncnc4n3Cc3cc(C)ccn3)c(Cl)c2)COC1` [Example T333, 8-(2-chloro-4-((3-methoxyoxetan-3-yl)methoxy)phenyl)-6-(1-methylcyclopropoxy)-9-((4-methylpyridin-2-yl)methyl)-9H-purine] was tested. Which IC50 did it give?
Its IC50 is 251 nM.

How did the IC50 turn out when `Cc1ccnc(Cn2c(-c3ccc(OCCC4(O)COC4)cc3Cl)nc3c(OC4(C)CC4)ncnc32)c1` [Example T334, 3-(2-(3-chloro-4-(6-(1-methylcyclopropoxy)-9-((4-methylpyridin-2-yl)methyl)-9H-purin-8-yl)phenoxy)ethyl)oxetan-3-ol] was run?
The IC50 was 251 nM.

How did the IC50 turn out when `Cc1ccnc(Cn2c(-c3ccc(N4CCNCCC4=O)cc3Cl)nc3c(OC4(C)CC4)ncnc32)c1` [Example T338, 4-(3-chloro-4-(6-(1-methylcyclopropoxy)-9-((4-methylpyridin-2-yl)methyl)-9H-purin-8-yl)phenyl)-1,4-diazepan-5-one] was run?
The IC50 was 2000 nM.

`Cc1ccnc(Cn2c(-c3ccc(N4CCNC(=O)CC4)cc3Cl)nc3c(OC4(C)CC4)ncnc32)c1` [Example T339, 1-(3-chloro-4-(6-(1-methylcyclopropoxy)-9-((4-methylpyridin-2-yl)methyl)-9H-purin-8-yl)phenyl)-1,4-diazepan-5-one] was tested. Which IC50 did it give?
Its IC50 is 501 nM.

`Cc1ccnc(Cn2c(-c3ccc(N4CC[C@H](C(N)=O)C4)cc3Cl)nc3c(OC4(C)CC4)ncnc32)c1` [Example T340, (S)-1-(3-chloro-4-(6-(1-methylcyclopropoxy)-9-((4-methylpyridin-2-yl)methyl)-9H-purin-8-yl)phenyl)pyrrolidine-3-carboxamide] was tested. Which IC50 did it give?
The IC50 was 1260 nM.

How did the IC50 turn out when `CNC(=O)C1CN(c2ccc(-c3nc4c(OC5(C)CC5)ncnc4n3Cc3cc(C)ccn3)c(Cl)c2)C1` [Example T341, 1-(3-chloro-4-(6-(1-methylcyclopropoxy)-9-((4-methylpyridin-2-yl)methyl)-9H-purin-8-yl)phenyl)-N-methylazetidine-3-carboxamide] was run?
The IC50 was 316 nM.

How did the IC50 turn out when `CNC(=O)N1CC(Oc2ccc(-c3nc4c(OC5(C)CC5)ncnc4n3Cc3cc(C)ccn3)c(Cl)c2)C1` [Example T343, 3-(3-chloro-4-(6-(1-methylcyclopropoxy)-9-((4-methylpyridin-2-yl)methyl)-9H-purin-8-yl)phenoxy)-N-methylazetidine-1-carboxamide] was run?
Its IC50 is 398 nM.

Which IC50 does the source give for `Cc1ccnc(Cn2c(-c3ccc(O[C@@H]4CCN(C(N)=O)C4)cc3Cl)nc3c(OC4(C)CC4)ncnc32)c1` [Example T344, (R)-3-(3-chloro-4-(6-(1-methylcyclopropoxy)-9-((4-methylpyridin-2-yl)methyl)-9H-purin-8-yl)phenoxy)pyrrolidine-1-carboxamide] here?
The IC50 was 2000 nM.

Which IC50 does the source give for `CC1(Oc2ncnc3c2nc(-c2ccc(OCCN4CCNCC4)cc2Cl)n3Cc2ccc(F)cn2)CC1` [Example T350, 8-(2-chloro-4-(2-(piperazin-1-yl)ethoxy)phenyl)-9-((5-fluoropyridin-2-yl)methyl)-6-(1-methylcyclopropoxy)-9H-purine] here?
Its IC50 is 2510 nM.

With `CC1(Oc2ncnc3c2nc(-c2ccc(OCCN4CCNCC4)cc2Cl)n3Cc2ncccc2F)CC1` [Example T351, 8-(2-chloro-4-(2-(piperazin-1-yl)ethoxy)phenyl)-9-((3-fluoropyridin-2-yl)methyl)-6-(1-methylcyclopropoxy)-9H-purine] as the compound, how does the IC50 read?
The IC50 was 3160 nM.

For `Cc1ccnc(Cn2c(-c3ccc(CCC(=O)N(C)C)cc3Cl)nc3c(OC4(C)CC4)ncnc32)c1` [Example T358, 3-(3-chloro-4-(6-(1-methylcyclopropoxy)-9-((4-methylpyridin-2-yl)methyl)-9H-purin-8-yl)phenyl)-N,N-dimethylpropanamide], which IC50 is on record?
The IC50 was 251 nM.

Which IC50 does the source give for `CC[C@H](CO)NC(=O)c1ccc(-c2nc3c(OC4(C)CC4)ncnc3n2Cc2cc(C)ccn2)c(Cl)c1` [Example T361, (R)-3-chloro-N-(1-hydroxybutan-2-yl)-4-(6-(1-methylcyclopropoxy)-9-((4-methylpyridin-2-yl)methyl)-9H-purin-8-yl)benzamide] here?
Its IC50 is 631 nM.

With `Cc1ccnc(Cn2c(-c3ccc(C(=O)NC(C)(C)CO)cc3Cl)nc3c(OC4(C)CC4)ncnc32)c1` [Example T362, 3-chloro-N-(1-hydroxy-2-methylpropan-2-yl)-4-(6-(1-methylcyclopropoxy)-9-((4-methylpyridin-2-yl)methyl)-9H-purin-8-yl)benzamide] as the compound, how does the IC50 read?
Its IC50 is 631 nM.

With `Cc1ccnc(Cn2c(-c3ccc(C(=O)N[C@H](C)CCO)cc3Cl)nc3c(OC4(C)CC4)ncnc32)c1` [Example T364, (R)-3-chloro-N-(4-hydroxybutan-2-yl)-4-(6-(1-methylcyclopropoxy)-9-((4-methylpyridin-2-yl)methyl)-9H-purin-8-yl)benzamide] as the compound, how does the IC50 read?
Its IC50 is 794 nM.

With `CC[C@@H](O)CNC(=O)c1ccc(-c2nc3c(OC4(C)CC4)ncnc3n2Cc2cc(C)ccn2)c(Cl)c1` [Example T365, (R)-3-chloro-N-(2-hydroxybutyl)-4-(6-(1-methylcyclopropoxy)-9-((4-methylpyridin-2-yl)methyl)-9H-purin-8-yl)benzamide] as the compound, how does the IC50 read?
The IC50 was 794 nM.

`Cc1ccnc(Cn2c(-c3ccc(OCC(=O)NC(C)C)cc3Cl)nc3c(OC4(C)CC4)ncnc32)c1` [Example T366, 2-(3-chloro-4-(6-(1-methylcyclopropoxy)-9-((4-methylpyridin-2-yl)methyl)-9H-purin-8-yl)phenoxy)-N-isopropylacetamide] was tested. Which IC50 did it give?
The IC50 was 200 nM.

With `CC(=O)NCCCOc1ccc(-c2nc3c(OC4(C)CC4)ncnc3n2Cc2cc(C)ccn2)c(Cl)c1` [Example T367, N-(3-(3-chloro-4-(6-(1-methylcyclopropoxy)-9-((4-methylpyridin-2-yl)methyl)-9H-purin-8-yl)phenoxy)propyl)acetamide] as the compound, how does the IC50 read?
The IC50 was 316 nM.

For `Cc1ccnc(Cn2c(-c3ccc(CCNC(=O)[C@@H](C)O)cc3Cl)nc3c(OC4(C)CC4)ncnc32)c1` [Example T368, (R)-N-(3-chloro-4-(6-(1-methylcyclopropoxy)-9-((4-methylpyridin-2-yl)methyl)-9H-purin-8-yl)phenethyl)-2-hydroxypropanamide], which IC50 is on record?
The IC50 was 631 nM.

With `Cc1ccnc(Cn2c(-c3ccc(CC(=O)NCCCO)cc3Cl)nc3c(OC4(C)CC4)ncnc32)c1` [Example T370, 2-(3-chloro-4-(6-(1-methylcyclopropoxy)-9-((4-methylpyridin-2-yl)methyl)-9H-purin-8-yl)phenyl)-N-(3-hydroxypropyl)acetamide] as the compound, how does the IC50 read?
The IC50 was 1000 nM.

With `Cc1ccnc(Cn2c(-c3ccc(OCC(=O)NC[C@H](C)O)cc3Cl)nc3c(OC4(C)CC4)ncnc32)c1` [Example T372, (S)-2-(3-chloro-4-(6-(1-methylcyclopropoxy)-9-((4-methylpyridin-2-yl)methyl)-9H-purin-8-yl)phenoxy)-N-(2-hydroxypropyl)acetamide] as the compound, how does the IC50 read?
The IC50 was 398 nM.

For `Cc1ccnc(Cn2c(-c3ccc(OCC(=O)NCCCO)cc3Cl)nc3c(OC4(C)CC4)ncnc32)c1` [Example T373, 2-(3-chloro-4-(6-(1-methylcyclopropoxy)-9-((4-methylpyridin-2-yl)methyl)-9H-purin-8-yl)phenoxy)-N-(3-hydroxypropyl)acetamide], which IC50 is on record?
The IC50 was 316 nM.

Which IC50 does the source give for `Cc1ccnc(Cn2c(-c3ccc(OCC(=O)N(C)CCO)cc3Cl)nc3c(OC4(C)CC4)ncnc32)c1` [Example T374, 2-(3-chloro-4-(6-(1-methylcyclopropoxy)-9-((4-methylpyridin-2-yl)methyl)-9H-purin-8-yl)phenoxy)-N-(2-hydroxyethyl)-N-methylacetamide] here?
The IC50 was 1260 nM.

For `Cc1ccnc(Cn2c(-c3ccc(OCCNC(=O)[C@@H](C)O)cc3Cl)nc3c(OC4(C)CC4)ncnc32)c1` [Example T375, (R)-N-(2-(3-chloro-4-(6-(1-methylcyclopropoxy)-9-((4-methylpyridin-2-yl)methyl)-9H-purin-8-yl)phenoxy)ethyl)-2-hydroxypropanamide], which IC50 is on record?
The IC50 was 251 nM.

How did the IC50 turn out when `Cc1ccnc(Cn2c(-c3ccc(OCCN(C)C)cc3Cl)nc3c(OC4(C)CC4)nccc32)c1` [Example T381, 2-(3-chloro-4-(4-(1-methylcyclopropoxy)-1-((4-methylpyridin-2-yl)methyl)-1H-imidazo[4,5-c]pyridin-2-yl)phenoxy)-N,N-dimethylethan-1-amine] was run?
Its IC50 is 251 nM.
